Tested on: TFEB
Experiment: TFEB nuclear translocation assay, HeLa wt cells
Type: cell-based
Settings: 2 hrs compound treatment, Table 1 does not say HeLa wt or TRPML1 KO
Description: For the TFEB nuclear translocation assay, HeLa wt or HeLa TRPML1 KO cells were plated at 2700 cells/well into black-walled, 384-well Cell carrier Ultra tissue culture treated plates in complete media and incubated overnight. The next day, cells are treated for 2 hrs with compounds and incubated at 37° C. Cells were then fixed for 30 minutes at room temperature in 4% final PFA and washed five times with 90 μL PBS. PBS is aspirated from the wells and the cells are blocked with 7.5 μL blocking buffer (1:1 PBS/Odyssey block buffer containing 0.1% triton x-100 and 1% goat serum). After 30-60 minutes of block, 7.5 μL of primary anti-TFEB (rabbit) antibody is added for a final dilution of 1:200 antibody in 15 μL blocking buffer. Plates are incubated overnight at 4° C. The following day, plates are washed again into PBS, 90 μL with 5 washes, all PBS is aspirated from the wells and the cells are incubated for 1 hr in 1:1000 goat-anti rabbit Alexa 488 secondary antibody, also containing 10 μg/mL Hoechst 33342. After the 1 hr room temperature incubation, plates are washed a final time into PBS, sealed with foil and imaged with an automated epifluorescence microscopy (PerkinElmer Operetta CLS). Four different fields were imaged per well using ×20 magnification for DAPI and FITC filter sets. Images were quantified using PerkinElmer Harmony software, briefly: apply flatfield correction (basic/advanced) for input images. Use the Find Nuclei building block with channel set at Hoechst to find the nuclei. Use the Find cytoplasm building block with channel set to Alexa 488 to find the cytoplasm. Use select cell region with Channel set at Alexa 488 and region of interest as Nuclei and define outer border at 0 μm and inner at 45 μm to cover complete nuclei. Use select cell region with Channel set at Alexa 488 and region of interest as ring region and define outer border at −5 μm and inner at 0 μm to define a ring around the nucleus. Use the find calculate intensity parameter to calculate intensity of the nuclear region and the ring region. Define results as Number of nuclei and ratio of A/B where A is Intensity of Nuclei and B is intensity of the ring region.
The compound numbers correspond to the compound numbers above in Tables A or B. Compounds having an activity designated as “++++” provided an AC50 of ≤2.00 μM; compounds having an activity designated as “+++” provided an AC50 of 2.01-8.00 μM; compounds having an activity designated as “++” provided an AC50 of 8.01-9.99 μM; and compounds having an activity designated as “+” provided an AC50 of ≥10.00 μM.

Row | Structure (SMILES) | AC50 (Homo sapiens, HeLa, 2 h) [nM] | AC50 [nM]
1 | C[C@@H]1CN(CC2CCN(c3c(NS(=O)(=O)c4ccc(S(=O)(=O)N(C)C)cc4)cccc3C3CC3)CC2)C[C@H](C)O1 [Compound A-863, N4-[3-cyclopropyl-2-(4-{[(2R,6S)-2,6-dimethylmorpholin-4-yl]methyl}piperidin-1-yl)phenyl]-N1,N1-dimethylbenzene-1,4-disulfonamide] | ≤ 2000 | 
2 | CN(C)S(=O)(=O)c1ccc(S(=O)(=O)Nc2cccc(F)c2N2CCC(CN3CC4CCC(C3)O4)CC2)cc1 [Compound A-762, N4-{3-fluoro-2-[4-({8-oxa-3-azabicyclo[3.2.1]octan-3-yl}methyl)piperidin-1-yl]phenyl}-N1,N1-dimethylbenzene-1,4-disulfonamide] | ≤ 2000 | 
3 | CC(C)(C)C(=O)N1CCN(c2ccccc2NS(=O)(=O)C2(c3ccccc3)CC2)CC1 [Compound A-564, N-{2-[4-(2,2-dimethylpropanoyl)piperazin-1-yl]phenyl}-1-phenylcyclopropane-1-sulfonamide] | ≤ 2000 | 
4 | CC1(C)CC2(CCN(c3ccccc3NS(=O)(=O)c3ccc4c(c3)CCC4)CC2)CO1 [Compound A-713, N-(2-{3,3-dimethyl-2-oxa-8-azaspiro[4.5]decan-8-yl}phenyl)-2,3-dihydro-1H-indene-5-sulfonamide] | ≤ 2000 | 
5 | CN(C)S(=N)(=O)c1ccc(S(=O)(=O)Nc2ccccc2N2CCC(COC(F)(F)CF)CC2)cc1 (stereo not drawn) [Compound A-877, N,N-dimethyl-4-[(2-{4-[(1,1,2-trifluoroethoxy)methyl]piperidin-1-yl}phenyl)sulfamoyl]benzene-1-sulfonoimidamide] | ≤ 2000 | 
6 | CC(c1cccc(F)c1N1CCC(CN2C3CCC2COC3)CC1)S(=O)(=O)c1ccc(S(C)(=O)=O)cc1 (single isomer, unassigned) [Compound A-914, 8-((1-(2-fluoro-6-(1-((4-(methylsulfonyl)phenyl)sulfonyl)ethyl)phenyl)piperidin-4-yl)methyl)-3-oxa-8-azabicyclo[3.2.1]octane] |  | ≥ 10000
7 | CN(C)S(=O)(=O)c1ccc(S(=O)(=O)Nc2ccccc2N2CCC(C3CC3(F)F)CC2)cc1 (stereo not drawn) [Compound A-479, N4-{2-[4-(2,2-difluorocyclopropyl)piperidin-1-yl]phenyl}-N1,N1-dimethylbenzene-1,4-disulfonamide] | ≤ 2000 | 
8 | CN(C)S(=O)(=O)c1ccc(S(=O)(=O)Nc2ccccc2N2CCC(O)(c3ccccc3)CC2)cc1 [Compound A-148, N4-[2-(4-hydroxy-4-phenylpiperidin-1-yl)phenyl]-N1,N1-dimethylbenzene-1,4-disulfonamide] | ≤ 2000 | 
9 | Cc1ccc(S(=O)(=O)n2cc3c(N4CCN(C5CCCCC5)CC4)cccc3n2)cc1 [Compound A-561] | 2010 to 8000 | 
10 | CS(=O)(=O)c1ccc(S(=O)(=O)Nc2ccccc2N2CCC3(CCO3)CC2)cc1 [Compound A-333, 4-methanesulfonyl-N-(2-{1-oxa-7-azaspiro[3.5]nonan-7-yl}phenyl)benzene-1-sulfonamide] | ≥ 10000 | 
11 | CN1C(=O)c2cc(F)ccc2C12CCN(c1ccccc1NS(=O)(=O)c1ccc(S(=O)(=O)N(C)C)cc1)CC2 [Compound A-301, N4-(2-{5-fluoro-2-methyl-3-oxo-2,3-dihydrospiro[isoindole-1,4′-piperidin]-1′-yl}phenyl)-N1,N1-dimethylbenzene-1,4-disulfonamide] | ≤ 2000 | 
12 | CN(C)S(=O)(=O)c1ccc(S(=O)(=O)Nc2ccccc2N2CCN(C(=O)C3(C)CCCO3)CC2)cc1 (stereo not drawn) [Compound A-476, N1,N1-dimethyl-N4-{2-[4-(2-methyloxolane-2-carbonyl)piperazin-1-yl]phenyl}benzene-1,4-disulfonamide] | 2010 to 8000 | 
13 | CC(c1cccc(F)c1N1CCCCC1)S(=O)(=O)c1ccc(S2(=O)=NCCC2)cc1 (single isomer, unassigned) [Compound A-980, 1-(4-((1-(3-fluoro-2-(piperidin-1-yl)phenyl)ethyl)sulfonyl)phenyl)-4,5-dihydro-3H-isothiazole 1-oxide] |  | ≥ 10000
14 | COCC1(C)CCN(c2ccccc2NS(=O)(=O)c2ccc3c(c2)COC3(C)C)CC1 [Compound A-682, N-{2-[4-(methoxymethyl)-4-methylpiperidin-1-yl]phenyl}-1,1-dimethyl-1,3-dihydro-2-benzofuran-5-sulfonamide] | 2010 to 8000 | 
15 | CN(C)S(=O)(=O)c1ccc(S(=O)(=O)Nc2ccccc2N2CCN(C34CC(C3)C4)CC2)cc1 [Compound A-179, N4-[2-(4-{bicyclo[1.1.1]pentan-1-yl}piperazin-1-yl)phenyl]-N1,N1-dimethylbenzene-1,4-disulfonamide] | ≤ 2000 | 
16 | COCC1(C)CCN(c2ccccc2NS(=O)(=O)Cc2ccc(C)cc2F)CC1 [Compound A-709, 1-(2-fluoro-4-methylphenyl)-N-{2-[4-(methoxymethyl)-4-methylpiperidin-1-yl]phenyl}methanesulfonamide] | 2010 to 8000 | 
17 | CN(C(=O)C1(C)CCN(c2ccccc2NS(=O)(=O)c2ccc(S(=O)(=O)N(C)C)cc2)CC1)C(C)(C)C [Compound A-360, N-tert-butyl-1-{2-[4-(dimethylsulfamoyl)benzenesulfonamido]phenyl}-N,4-dimethylpiperidine-4-carboxamide] | ≤ 2000 | 
18 | NS(=O)(=O)c1ccc(S(=O)(=O)Nc2ccccc2N2CCC(c3ccc(Cl)cc3F)CC2)cc1 [Compound A-482, N1-{2-[4-(4-chloro-2-fluorophenyl)piperidin-1-yl]phenyl}benzene-1,4-disulfonamide] | 2010 to 8000 | 
19 | Cc1cnc(N2CCC(CN3CCC(F)(F)CC3)CC2)c(C(C)S(=O)(=O)c2ccc3c(c2)CCC3)c1 (single isomer, unassigned) [Compound A-999, 2-(4-((4,4-difluoropiperidin-1-yl)methyl)piperidin-1-yl)-3-(1-((2,3-dihydro-1H-inden-5-yl)sulfonyl)ethyl)-5-methylpyridine] |  | ≤ 2000
20 | CN(C)S(=O)(=O)c1ccc(S(=O)(=O)Nc2cncc(F)c2N2CCCCC2)cc1 [Compound A-856, N1-(5-fluoro-4-(piperidin-1-yl)pyridin-3-yl)-N^4,N^4-dimethylbenzene-1,4-disulfonamide] | ≥ 10000 | 
21 | CC(C)(C)C(=O)N1CCN(c2ccccc2NS(=O)(=O)c2ccc(S(C)(=O)=O)cc2)CC1 [Compound A-324, N-{2-[4-(2,2-dimethylpropanoyl)piperazin-1-yl]phenyl}-4-methanesulfonylbenzene-1-sulfonamide] | ≥ 10000 | 
22 | CN(C)S(=O)(=O)c1ccc(S(=O)(=O)Nc2ccccc2N2C3CC2CN(c2ccc(Cl)cc2F)C3)cc1 [Compound A-27, N4-{2-[3-(4-chloro-2-fluorophenyl)-3,6-diazabicyclo[3.1.1]heptan-6-yl]phenyl}-N1,N1-dimethylbenzene-1,4-disulfonamide] | 2010 to 8000 | 
23 | O=S(=O)(Nc1ccccc1N1CCC(c2ccc(Cl)cc2F)CC1)c1ccc(C2(C(F)(F)F)N=N2)cc1 [Compound A-732, N-{2-[4-(4-chloro-2-fluorophenyl)piperidin-1-yl]phenyl}-4-[3-(trifluoromethyl)-3H-diazirin-3-yl]benzene-1-sulfonamide] | 2010 to 8000 | 
24 | CN1CC2(CCN(c3ccccc3NS(=O)(=O)c3ccc(S(=O)(=O)N(C)C)cc3)CC2)c2ncc(Cl)cc21 [Compound A-268, N4-(2-{6′-chloro-1′-methyl-1′,2′-dihydrospiro[piperidine-4,3′-pyrrolo[3,2-b]pyridin]-1-yl}phenyl)-N1,N1-dimethylbenzene-1,4-disulfonamide] | ≤ 2000 | 
